Counter-ions that a name gives are not always drawn.
Columns and labels:
Conditions in all cases: stereoisomer not certain
[1] = RP, Waters ACQUITY UPLC BEH Shield RP18, 150 × 2.1 mm, 1.7 µm, 40 °C, 0.4 mL/min, estimated dead time 0.83 min; A: water + 0.1% formic acid, pH 3; B: acetonitrile + 0.1% formic acid, pH 3; gradient (min/%B) 0/0 30/50 31/100 37/100 37.1/0
[2] = RP, Agilent ZORBAX RRHD Eclipse Plus C18, 50 × 2.1 mm, 1.8 µm, 30 °C, 0.4 mL/min, estimated dead time 0.28 min; A: water + 0.1% formic acid, pH 3; B: acetonitrile + 0.1% formic acid, pH 3; gradient (min/%B) 0/1 5/10 8/25 9.1/99 10/99 12/99
[3] = RP, Agilent ZORBAX RRHD Eclipse Plus C18, 50 × 2.1 mm, 1.8 µm, 30 °C, 0.4 mL/min, estimated dead time 0.28 min; A: water + 0.1% formic acid, pH 3; B: acetonitrile + 0.1% formic acid, pH 3; gradient (min/%B) 0/1 5/10 8/25 9.1/99 10/99 12/1
[4] = RP, Agilent InfinityLab Poroshell 120 EC-C18, 100 × 3 mm, 2.7 µm, 25 °C, 0.4 mL/min, estimated dead time 1.1 min; A: water + 0.1% formic acid, pH 3; B: acetonitrile + 0.1% formic acid, pH 3; gradient (min/%B) 0/5 10/25 20/40 24/90 25/90 26/5 30/5
[5] = RP, Waters ACQUITY UPLC BEH C18, 100 × 2.1 mm, 1.7 µm, 65 °C, 0.4 mL/min, estimated dead time 0.55 min; A: water + 0.1% formic acid, pH 3; B: 80% acetonitrile + 20% acetone + 0.1% formic acid, pH 3; gradient (min/%B) 0/0 5/100 5.5/0 6/0
[6] = RP, Agilent ZORBAX Eclipse XDB-C18, 100 × 2.1 mm, 1.8 µm, 50 °C, 0.4 mL/min, estimated dead time 0.55 min; A: water + 0.1% formic acid, pH 3; B: methanol + 0.1% formic acid, pH 3; gradient (min/%B) 0/2 10/100 14.5/100 14.51/2 16.5/2
[7] = RP, Waters ACQUITY UPLC HSS T3, 100 × 2.1 mm, 1.8 µm, 30 °C, 0.4 mL/min, estimated dead time 0.55 min; A: water + 0.1% formic acid, pH 3; B: acetonitrile + 0.1% formic acid, pH 3; gradient (min/%B) 0/0 2/0 15/100 22/100 22.1/0 26/0

SMILES | LC retention time [2] | LC retention time [3] | LC retention time [5] | also measured
C=C1C(=O)OC2C1CCC(C)=C1C(=O)C=C(CO)C12 (stereo not given) [8-deoxylactucin] | – | – | – | LC retention time [1]: 15.5 min
C=C1C(=O)OC2C3C(COC(=O)C(=O)O)=CC(=O)C3=C(C)CC(OC(=O)Cc3ccc(O)cc3)C12 (stereo not given) [lactucopicrin-15-oxalate] | – | – | – | LC retention time [1]: 17.2 min
COc1ccc(C(=O)O)cc1O [Isovanillic acid] | 1.99 min | 5.2 min | – | –
C=C1C(=O)OC2C3C(COC(=O)C(=O)O)=CC(=O)C3=C(C)CC(O)C12 (stereo not given) [lactucin-15-oxalate] | – | – | – | LC retention time [1]: 10.4 min
CC(Oc1ccc(O)cc1)C(=O)O (single isomer, unassigned; (+)) [(+)-2-(4-Hydroxyphenoxy)propionic acid] | 3.73 min | 6.31 min | – | –
O=C(O)C1OC(Oc2cc(O)c3c(=O)c(-c4ccc(O)cc4)coc3c2)C(O)C(O)C1O (stereo not given) [Genistein 7-O-glucuronide] | – | – | 2.1 min | LC retention time [4]: 9.6 min
Cc1ccc(OS(=O)(=O)O)c(O)c1 [4-Methylcatechol-1-O-sulfate] | 3.83 min | 5.96 min | – | –
O=c1c(O)c(-c2ccccc2)oc2cc(O)cc(O)c12 [galangin] | – | – | – | LC retention time [1]: 29.4 min
COc1cc(CC(CO)C(CO)Cc2ccc(O)c(OC)c2)ccc1O (single isomer, unassigned; (-)) [(-)-Secoisolariciresinol] | – | – | 2.4 min | LC retention time [4]: 11.5 min
Nc1ccc(C(=O)O)cc1 [4-Aminobenzoic acid] | – | – | 1.53 min | LC retention time [6]: 2.08 min
CCCOC(=O)c1cc(O)c(O)c(O)c1 [propyl gallate] | – | – | – | LC retention time [1]: 12.8 min
NCCc1c[nH]c2ccccc12 [Tryptamine] | – | – | 1.51 min | LC retention time [6]: 2.51 min
Oc1cc(O)c2c(c1)OC(c1ccc(O)c(O)c1)C(O)C2 (single isomer, unassigned; (+)) [(+)-Catechin] | 4.65 min | – | – | –
COc1ccc(C2Oc3cc(O)cc(O)c3CC2O)cc1O (stereo not given) [4'-O-methylepicatechin] | – | 7.85 min | – | –
COc1cc(CCC(=O)O)ccc1OC1OC(C(=O)O)C(O)C(O)C1O (stereo not given) [Dihydroferulic acid-4-O-glucuronide] | 5.15 min | 5.64 min | – | –
O=C(O)C=Cc1ccc(OS(=O)(=O)O)cc1 [p-Coumaric acid 4-O-sulfate] | 3.78 min | 5.25 min | – | –
O=C1CCCCN1 [2-Piperidinone] | – | – | 1.37 min | –
O=C(O)Cc1ccccc1 [Phenylacetic acid] | 4.65 min | 7.64 min | – | –
COc1cccc(OS(=O)(=O)O)c1O [1-Methyl-pyrogallol-O-sulfate] | 1.96 min | 4 min | – | –
CC(C)C(O)(CC(=O)O)C(=O)O (stereo not given) [2-Isopropylmalic acid] | – | – | 1.72 min | –
CC1=C2C(=O)C=C(COC(=O)C(=O)O)C2C2OC(=O)C(C)C2CC1 (stereo not given) [Dihydro-8-deoxylactucin-15-oxalate] | – | – | – | LC retention time [1]: 14.9 min
Cc1cc(C(=O)O)ccc1O [4-Hydroxy-3-methylbenzoic acid] | – | – | 2.03 min | –
O=C1CCC(Cc2ccc(OS(=O)(=O)O)c(O)c2)O1 (stereo not given) | 5.42 min | 6.09 min | – | –
C=C1C(=O)OC2C3C(CO)=CC(=O)C3=C(C)CC(OC(=O)Cc3ccc(O)cc3)C12 (stereo not given) [Lactucopicrin] | – | – | – | LC retention time [1]: 18.4 min
O=C(O)Cc1cccc(O)c1 [3-hydroxyphenylacetic acid] | 4.67 min | 5.69 min | – | LC retention time [6]: 3.55 min

SMILES | LC retention time [2] | LC retention time [3] | LC retention time [5] | also measured
Cc1cc2nc3c(=O)[nH]c(=O)nc-3n(CC(O)C(O)C(O)CO)c2cc1C (stereo not given) [Riboflavin] | – | – | 1.73 min | LC retention time [6]: 4.17 min
COc1cc(CC2COC(=O)C2Cc2ccc(O)c(OC)c2)ccc1O (single isomer, unassigned; (-)) [(-)-Matairesinol] | – | – | 2.86 min | –
CC1=C2C(=O)C=C(COC(=O)C(=O)O)C2C2OC(=O)C(C)C2C(OC(=O)Cc2ccc(O)cc2)C1 (stereo not given) [Dihydrolactucopicrin-15-oxalate] | – | – | – | LC retention time [1]: 17.3 min
O=C(O)CNC(=O)c1cccc(O)c1 [3-Hydroxyhippuric acid] | 1.88 min | 3.58 min | 1.58 min | –
Oc1cccc(O)c1 [Resorcinol] | 1.44 min | 2.66 min | – | –
COc1ccc(CCC(=O)O)cc1OS(=O)(=O)O [Dihydro isoferulic acid-3-O-sulfate] | 5.06 min | 6.39 min | – | –
COc1cc(CC(=O)O)ccc1OS(=O)(=O)O [Homovanillic acid sulfate] | 2.12 min | 4.48 min | 1.45 min | –
COc1cc(C(O)C(=O)O)ccc1O (stereo not given) [Vanillylmandelic acid] | – | – | 1.42 min | LC retention time [6]: 1.65 min
O=C(O)C=Cc1ccc(OS(=O)(=O)O)c(O)c1 [caffeic acid-4-O-sulfate] | 5.5 min | 5.28 min | – | –
Cn1c(=O)c2[nH]cnc2n(C)c1=O [Theophylline] | – | – | 1.5 min | LC retention time [6]: 3.05 min
COc1cccc(OC)c1O [2,6-Dimethoxyphenol] | – | – | 2.36 min | –
O=C(O)C=Cc1ccc(O)c(OC2OC(C(=O)O)C(O)C(O)C2O)c1 (stereo not given) [Caffeic acid-3-glucuronide] | 4.14 min | 5.23 min | – | –
Cc1ccc(O)c(OS(=O)(=O)O)c1 [4-Methylcatechol-2-O-sulfate] | 3.83 min | 5.96 min | – | –
O=C(O)C=Cc1ccc(OC2OC(C(=O)O)C(O)C(O)C2O)cc1 (stereo not given) [p-Coumaric acid-4-O-glucuronide] | 1.85 min | 3.8 min | – | –
O=C(O)C=Cc1ccc(O)c(OS(=O)(=O)O)c1 [Caffeic acid-3-O-sulfate] | 3.99 min | 4.86 min | – | –
COc1ccc(C(=O)O)c(O)c1 [2-hydroxy-4-methoxybenzoic acid] | – | 8.98 min | – | –
COc1ccc(CCC(=O)O)cc1O [Dihydroisoferulic acid] | 5.06 min | 7.68 min | – | –
O=C1OCC(Cc2cccc(O)c2)C1Cc1cccc(O)c1 (stereo not given) [Enterolactone] | – | – | 2.88 min | LC retention time [4]: 17.4 min
O=S(=O)(O)Oc1cccc(O)c1O [Pyrogallol-1-O-sulfate] | 0.774 min | 1.56 min | – | –
COc1c(O)cccc1OS(=O)(=O)O [2-Methyl-pyrogallol-O-sulfate] | 1.12 min | 2.89 min | – | –
O=Cc1cccc(O)c1 [3-Hydroxybenzaldehyde] | – | 5.91 min | – | LC retention time [6]: 3.72 min
CC1(O)Cc2c(O)cc(O)cc2OC1c1ccc(O)c(O)c1 (stereo not given) [3-Methylepicatechin] | – | – | 1.99 min | –
CC12C=Cc3occc3C1CCC13CC(CCC12)C(O)(CO)C3 (stereo not given) [Kahweol] | – | – | 3.73 min | –
O=C(O)C1OC(Oc2cc(O)c3c(=O)c(O)c(-c4ccc(O)c(O)c4)oc3c2)C(O)C(O)C1O (stereo not given) [Quercetin-7-O-glucuronide] | 8.38 min | 7.84 min | – | –
COc1ccc(-c2oc3cc(O)cc(O)c3c(=O)c2O)cc1O [Tamarixetin] | – | – | 2.96 min | LC retention time [7]: 11.9 min

From the RepoRT retention time repository (doi:10.1016/j.foodchem.2021.129757)
